Holding throughout (assay): NCI-60 cell line screen, 48 h
Experiment [1] concerns A498 renal.
Experiment [2] relates to MDA-MB-435.
Experiment [3] concerns HOP-92 NSCLC.
The subject of experiment [4] is HCT-116 colon.
Experiment [5] has as its system MALME-3M melanoma.
For experiment [6], the system named is KM12 colon.
Experiment [7] relates to HCC-2998 colon.
In experiment [8] the test system is SF-295 CNS.
In experiment [9] the test system is NCI/ADR-RES ovarian.
Experiment [10] deals with OVCAR-5 ovarian.
Experiment [11] relates to RXF 393 renal.
For experiment [12], the system named is SW-620 colon.
For experiment [13], the system named is M14 melanoma.
Experiment [14] has as its system MOLT-4 leukemia.
Experiment [15] concerns HCT-15 colon.
Experiment [16] relates to COLO 205 colon.
Experiment [17] concerns A549 NSCLC.
The test system of experiment [18] is RPMI-8226 leukemia.
Experiment [19] deals with MCF7 breast.

Molecules are shown by their SMILES.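 A five-concentration, 48-hour dose response in 96-well plates underlies each endpoint, interpolated linearly between surrounding concentrations. The concentration for full growth arrest is given as TGI.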

Consider nine molecules from PubChem BioAssay (NCI).

As for `COc1ccc2nc3ccc(OC)cc3c(SCc3ccc([N+](=O)[O-])cc3)c2c1`, the TGI in experiment [1], in experiment [2], in [3], in experiment [4], in experiment [5] and in [6] was more than 100 µM throughout. The TGI in [7], in experiment [8], in experiment [9], in experiment [10], in experiment [11] and in experiment [12] was more than 100 µM each time. Further, the TGI in experiment [13], in experiment [14], in experiment [15], in experiment [16] and in experiment [17] was more than 100 µM in each case.

As to `N#Cc1c(Cl)cccc1Oc1ccc(S(=O)(=O)/N=C(\NN)Nc2ccc(Cl)cc2)cc1`, the TGI in experiment [1] was more than 100 µM; in experiment [3], 54 µM; in experiment [4], 37.8 µM; in experiment [18], 59.3 µM; in experiment [6], 42.7 µM; in experiment [8], 70.3 µM. Besides, the TGI was more than 100 µM in [19]; more than 100 µM in experiment [9]; 94.5 µM in experiment [10]; 47.1 µM in experiment [11]; more than 100 µM in experiment [12]; 52.1 µM in experiment [13]. Moreover, the TGI in experiment [14] is 34.4 µM; in experiment [15] it was more than 100 µM; in experiment [16], 29.6 µM; in experiment [17], more than 100 µM.

In the case of `COc1cc(/C=C(\C#N)C(=O)c2ccccc2)ccc1O`, the TGI in [1], in experiment [4], in experiment [5], in [18], in experiment [6] and in experiment [7] was more than 100 µM in each case. Further, the TGI in [8], in experiment [10], in experiment [12], in experiment [13], in experiment [14] and in [15] was more than 100 µM each time. Also, the TGI in experiment [16] and in experiment [17] was more than 100 µM in each case.

Turning to `CC(=O)OC[C@]1(O)CC[C@@]23CC1C[C@@H]2CCC1C(C)(C)CCC[C@@]13C` (some centres undefined), the TGI in experiment [3] worked out at 27.8 µM; in experiment [4], 24.2 µM; in [5], 29.5 µM; in experiment [18], 28.1 µM; in experiment [6] it was 26.1 µM; in [7] it was 33 µM. In addition, the TGI amounted to 32 µM in experiment [8]; 23.5 µM in experiment [10]; 22.9 µM in experiment [11]; 22.5 µM in experiment [12]; 26.9 µM in experiment [13]; 15.8 µM in [14]. The TGI turned out to be 30 µM in experiment [15], 33.1 µM in [16] and 29.6 µM in experiment [17].

In the case of `CC(=O)OCC1OC(n2c(-c3ccccc3)c(C(C)=O)c(-c3ccc(Cl)cc3)c(C#N)c2=S)C(OC(C)=O)C(OC(C)=O)C1OC(C)=O` (centres undefined), the TGI in experiment [1] is more than 100 µM; in [2], more than 100 µM; in experiment [3] it was 71.5 µM; in experiment [4] it was more than 100 µM; in [5], more than 100 µM; in experiment [6] it was more than 100 µM. Also, the TGI in experiment [7], in experiment [8], in experiment [19], in experiment [9], in experiment [10] and in [11] was more than 100 µM each time. Moreover, the TGI in experiment [12], in [13], in experiment [14], in [15], in experiment [16] and in [17] was more than 100 µM each time.

As to `O=C1CCC(=O)N1Cc1ccccc1N=[N+]([O-])c1ccccc1CN1C(=O)CCC1=O`, the TGI in [4], in experiment [5], in experiment [18], in experiment [6], in [7] and in experiment [8] was more than 100 µM each time. The TGI in experiment [10], in experiment [11], in [12], in [13], in experiment [14] and in experiment [15] was more than 100 µM in each case. The TGI in experiment [16] and in experiment [17] was more than 100 µM throughout.

`CS/C1=C(\c2ccc(C)cc2)N(c2ccccc2)C(=O)C(=O)N(c2ccccc2)/C(c2ccc(C)cc2)=C(/SC)SS1`: the TGI in experiment [1], in experiment [2], in [3], in [4], in experiment [5] and in experiment [18] was more than 100 µM each time. Moreover, the TGI in experiment [7], in [8], in experiment [19], in experiment [9], in experiment [10] and in experiment [12] was more than 100 µM throughout. For the same molecule, the TGI in experiment [13], in experiment [14], in [15] and in experiment [16] was more than 100 µM each time.

As to `CN(C(=O)C12C3C4C1C1C4(C(=O)C45C6C7C4C4C5C6C74C)C3C12C)C(C)(C)C` (centres undefined), the TGI in [1], in [3], in [4], in [5], in experiment [6] and in experiment [7] was more than 100 µM throughout. For the same molecule, the TGI in experiment [8], in experiment [10], in [12], in experiment [13], in [14] and in experiment [15] was more than 100 µM each time. The TGI in experiment [16] and in [17] was more than 100 µM in each case.

With `COc1cccc(NC(=O)/C(CC(=O)CC(c2ccccc2)c2c(O)c3ccccc3oc2=O)=N\NC(C)(C)C)c1OC` (centres undefined), the TGI in experiment [1], in experiment [3], in [4], in [5], in experiment [18] and in [6] was more than 100 µM throughout. In addition, the TGI in [7], in experiment [8], in [10], in experiment [12], in experiment [13] and in [14] was more than 100 µM each time. The TGI in [15], in [16] and in [17] was more than 100 µM each time.
